Measured values reported in the NIST ThermoML archive (doi:10.1021/je700406p).

Assay: wn = mass fraction of the nth substance listed
Settings: Liquid, Vibrating tube method

CC(C)(N)CO [2-amino-2-methylpropan-1-ol] + O
Settings	mass density [kg/m3]
313.13 K, 500 kPa, w1 = 0.1997	989.5
313.13 K, 995 kPa, w1 = 0.2821	988.9
313.13 K, 998 kPa, w1 = 0.4002	985.4
313.13 K, 999 kPa, w1 = 0.4976	978.1
313.13 K, 1000 kPa, w1 = 0.1997	989.8
313.13 K, 2000 kPa, w1 = 0.1997	990.1
313.13 K, 2002 kPa, w1 = 0.2821	989.2
313.13 K, 2006 kPa, w1 = 0.4002	985.8
313.13 K, 2014 kPa, w1 = 0.4976	978.5
313.13 K, 2993 kPa, w1 = 0.2821	989.6
313.13 K, 2995 kPa, w1 = 0.4002	986.2
313.13 K, 3000 kPa, w1 = 0.1997	990.5
313.13 K, 3001 kPa, w1 = 0.4976	978.9
313.13 K, 3995 kPa, w1 = 0.4002	986.6
313.13 K, 4000 kPa, w1 = 0.1997	990.9
313.13 K, 4001 kPa, w1 = 0.2821	990
313.13 K, 4001 kPa, w1 = 0.4976	979.3
313.13 K, 4995 kPa, w1 = 0.2821	990.4
313.13 K, 4999 kPa, w1 = 0.4002	986.9
313.13 K, 4999 kPa, w1 = 0.4976	979.7
313.13 K, 5000 kPa, w1 = 0.1997	991.2
313.13 K, 5999 kPa, w1 = 0.4002	987.3
313.13 K, 6000 kPa, w1 = 0.1997	991.6
313.13 K, 6000 kPa, w1 = 0.4976	980.2
313.13 K, 6005 kPa, w1 = 0.2821	990.8
313.13 K, 6987 kPa, w1 = 0.2821	991.1
313.13 K, 6994 kPa, w1 = 0.4002	987.7
313.13 K, 6995 kPa, w1 = 0.4976	980.6
313.13 K, 7000 kPa, w1 = 0.1997	992
313.13 K, 7986 kPa, w1 = 0.4002	988.1
313.13 K, 7991 kPa, w1 = 0.2821	991.5
313.13 K, 8000 kPa, w1 = 0.1997	992.4
313.13 K, 8003 kPa, w1 = 0.4976	980.9
313.13 K, 8992 kPa, w1 = 0.4002	988.5
313.13 K, 8997 kPa, w1 = 0.2821	991.9
313.13 K, 8997 kPa, w1 = 0.4976	981.4
313.13 K, 9007 kPa, w1 = 0.1997	992.8
313.13 K, 9992 kPa, w1 = 0.4002	988.9
313.13 K, 9995 kPa, w1 = 0.2821	992.3
313.13 K, 9999 kPa, w1 = 0.4976	981.8
313.13 K, 10002 kPa, w1 = 0.1997	993.2
313.13 K, 10989 kPa, w1 = 0.4976	982.1
313.13 K, 10990 kPa, w1 = 0.2821	992.6
313.13 K, 10993 kPa, w1 = 0.4002	989.2
313.13 K, 11000 kPa, w1 = 0.1997	993.6
313.13 K, 11991 kPa, w1 = 0.2821	993
313.13 K, 11992 kPa, w1 = 0.4002	989.6
313.13 K, 11996 kPa, w1 = 0.4976	982.6
313.13 K, 12000 kPa, w1 = 0.1997	994
313.13 K, 12982 kPa, w1 = 0.2821	993.4
313.13 K, 13000 kPa, w1 = 0.1997	994.4
313.13 K, 13002 kPa, w1 = 0.4002	990
313.13 K, 13006 kPa, w1 = 0.4976	983
313.13 K, 13991 kPa, w1 = 0.2821	993.8
313.13 K, 13999 kPa, w1 = 0.4002	990.4
313.13 K, 14000 kPa, w1 = 0.1997	994.7
313.13 K, 14001 kPa, w1 = 0.4976	983.4
313.13 K, 14997 kPa, w1 = 0.2821	994.2
313.13 K, 14999 kPa, w1 = 0.4002	990.8
313.13 K, 15001 kPa, w1 = 0.4976	983.8
313.13 K, 15002 kPa, w1 = 0.1997	995.1
313.13 K, 15990 kPa, w1 = 0.2821	994.5
313.13 K, 15992 kPa, w1 = 0.4002	991.2
313.13 K, 15992 kPa, w1 = 0.4976	984.2
313.13 K, 16000 kPa, w1 = 0.1997	995.5
313.13 K, 16989 kPa, w1 = 0.2821	994.9
313.13 K, 16992 kPa, w1 = 0.4976	984.6
313.13 K, 16994 kPa, w1 = 0.4002	991.5
313.13 K, 17001 kPa, w1 = 0.1997	995.9
313.13 K, 17985 kPa, w1 = 0.4976	985
313.13 K, 17988 kPa, w1 = 0.2821	995.3
313.13 K, 17989 kPa, w1 = 0.4002	991.9
313.13 K, 18002 kPa, w1 = 0.1997	996.3
313.13 K, 18987 kPa, w1 = 0.2821	995.6
313.13 K, 18990 kPa, w1 = 0.4002	992.3
313.13 K, 18990 kPa, w1 = 0.4976	985.4
313.13 K, 19000 kPa, w1 = 0.1997	996.7
313.13 K, 19992 kPa, w1 = 0.4002	992.7
313.13 K, 19992 kPa, w1 = 0.4976	985.8
313.13 K, 19996 kPa, w1 = 0.2821	996
313.13 K, 20030 kPa, w1 = 0.1997	997.1
313.13 K, 20495 kPa, w1 = 0.4976	986
313.13 K, 20691 kPa, w1 = 0.4002	993
313.13 K, 20955 kPa, w1 = 0.2821	996.4
313.13 K, 21004 kPa, w1 = 0.1997	997.4
313.13 K, 22004 kPa, w1 = 0.1997	997.8
313.13 K, 23000 kPa, w1 = 0.1997	998.2
313.13 K, 24004 kPa, w1 = 0.1997	998.5
323.08 K, 1026 kPa, w1 = 0.2821	982.8
323.08 K, 2026 kPa, w1 = 0.2821	983.2
323.08 K, 2996 kPa, w1 = 0.2821	983.5
323.08 K, 4009 kPa, w1 = 0.2821	983.9
323.08 K, 5006 kPa, w1 = 0.2821	984.3
323.08 K, 6002 kPa, w1 = 0.2821	984.7
323.08 K, 6993 kPa, w1 = 0.2821	985.1
323.08 K, 7994 kPa, w1 = 0.2821	985.5
323.08 K, 9012 kPa, w1 = 0.2821	985.9
323.08 K, 9998 kPa, w1 = 0.2821	986.3
323.08 K, 11009 kPa, w1 = 0.2821	986.6
323.08 K, 11995 kPa, w1 = 0.2821	987
323.08 K, 12991 kPa, w1 = 0.2821	987.4
323.08 K, 14001 kPa, w1 = 0.2821	987.8
323.08 K, 14989 kPa, w1 = 0.2821	988.2
323.08 K, 15999 kPa, w1 = 0.2821	988.5
323.08 K, 16987 kPa, w1 = 0.2821	988.9
323.08 K, 17980 kPa, w1 = 0.2821	989.3
323.08 K, 18996 kPa, w1 = 0.2821	989.7
323.08 K, 19986 kPa, w1 = 0.2821	990.1
323.08 K, 20987 kPa, w1 = 0.2821	990.4
323.09 K, 1002 kPa, w1 = 0.4976	970.1
323.09 K, 1995 kPa, w1 = 0.4976	970.5
323.09 K, 3001 kPa, w1 = 0.4976	971
323.09 K, 4009 kPa, w1 = 0.4976	971.4
323.09 K, 5001 kPa, w1 = 0.4976	971.8
323.09 K, 5995 kPa, w1 = 0.4976	972.2
323.09 K, 7011 kPa, w1 = 0.4976	972.6
323.09 K, 7990 kPa, w1 = 0.4976	973
323.09 K, 9002 kPa, w1 = 0.4976	973.5
323.09 K, 9974 kPa, w1 = 0.4976	973.9
323.09 K, 10992 kPa, w1 = 0.4976	974.3
323.09 K, 11993 kPa, w1 = 0.4976	974.7
323.09 K, 12991 kPa, w1 = 0.4976	975.1
323.09 K, 13986 kPa, w1 = 0.4976	975.6
323.09 K, 14991 kPa, w1 = 0.4976	976
323.09 K, 15999 kPa, w1 = 0.4976	976.4
323.09 K, 16994 kPa, w1 = 0.4976	976.8
323.09 K, 18003 kPa, w1 = 0.4976	977.2
323.09 K, 18986 kPa, w1 = 0.4976	977.6
